This passage reports EC50 results from patent publication US12479803B2, “Antimalarial compounds” (UNIVERSITY OF CENTRAL FLORIDA RESEARCH FOUNDATION, INC., priority 2019, dated 2025).

The test system of this assay is CQ-resistant (Dd2) strain of P. falciparum. Kind of assay: In vitro antiplasmodial activity, SYBR Green I fluorescence assay, Dd2 strain. It is filed as cell-based, Plasmodium falciparum. As to the method: A set of 104 new styrylquinoline derivatives were synthesized and investigated for in vitro their antimalarial activity. To test antimalarial activities, different dilutions of compounds were added to P. falciparum culture. Following 72 h incubation at 37° C. in an atmosphere containing 5% CO2, the inhibitory property of the compounds were determined by SYBR Green I fluorescence assay. Meanwhile, SARs studies were conducted.
The SAR studies were focused on improving the in vitro activity of 2-arylvinylquinolines against the CQ-resistant Pf Dd2 strain.

[1] abbreviates: CQ-resistant (Dd2) strain, 72 h incubation, read-out: EC50 (nmol).

Read-outs that look alike come from different tables or passages of the source.

A word on the EC50: it is the midpoint of the concentration-response curve. Consider `COc1ccc2nc(C)cc(NCCN(C)C)c2c1` [Compound 6a], for which the half-maximal effective concentration (EC50) under setting [1] was 5520 ± 571 nM and the concentration for a half-maximal effect (EC50) entry (Dd2 strain) is “inactive”.

For `Cc1cc(NCCN(C)C)c2cc(Cl)ccc2n1` [Compound 6c], the EC50 under setting [1] is 732 ± 107 nM and the EC50 entry (Dd2 strain) was “inactive”.

`Cc1cc(NCCCN(C)C)c2cc(Cl)ccc2n1` [Compound 6e]: the EC50 runs as follows: under setting [1], 1240 ± 139 nM; (Dd2 strain) “inactive”.

Regarding `COc1ccc2nc(/C=C/c3ccccc3)cc(NCCN(C)C)c2c1` [Compound 8], the EC50 (Dd2 strain, read-out: EC50) was 41.2 ± 5.3 nM.

On to `COc1ccc2nc(/C=C/c3ccc([N+](=O)[O-])cc3)cc(NCCN(C)C)c2c1` [Compound 9], for which the EC50 (Dd2 strain, read-out: EC50) was found to be 28.6 ± 0.9 nM.

Take `COc1ccc2nc(/C=C/c3ccccc3[N+](=O)[O-])cc(NCCN(C)C)c2c1` [Compound 10]: the EC50 (Dd2 strain, read-out: EC50) was 56.3 ± 8.1 nM.

Regarding `COc1ccc2nc(/C=C/c3cccc([N+](=O)[O-])c3)cc(NCCN(C)C)c2c1` [Compound 11], the concentration giving a half-maximal response (EC50) (Dd2 strain, read-out: EC50) was determined as 49.5 ± 4 nM.

For the compound `COc1ccc(/C=C/c2cc(NCCN(C)C)c3cc(OC)ccc3n2)cc1` [Compound 12], the EC50 under setting [1] was found to be 43.6 ± 2 nM.

With `COc1ccc2nc(/C=C/c3ccc(OC)c(OC)c3)cc(NCCN(C)C)c2c1` [Compound 13], the 50% effective concentration (EC50) under setting [1] amounted to 187 ± 13.6 nM.

On to `COc1ccc2nc(/C=C/c3cc(OC)c(OC)c(OC)c3)cc(NCCN(C)C)c2c1` [Compound 14], for which the EC50 under setting [1] was found to be 74.2 ± 8.8 nM.

As to `COc1ccc2nc(/C=C/c3ccc(F)cc3)cc(NCCN(C)C)c2c1` [Compound 15], the EC50 under setting [1] was determined as 32.9 ± 5.1 nM.

On to `CN(C)CCNc1cc(/C=C/c2ccccc2)nc2ccc(F)cc12` [Compound 16], for which the EC50 (Dd2 strain, read-out: EC50) is 21 ± 2.1 nM.

Regarding `CN(C)CCNc1cc(/C=C/c2ccc([N+](=O)[O-])cc2)nc2ccc(F)cc12` [Compound 17], under setting [1], the EC50 is 30.9 ± 5.9 nM.

`CN(C)CCNc1cc(/C=C/c2ccc(F)cc2)nc2ccc(F)cc12` [Compound 18]: under setting [1], the EC50 stood at 30.9 ± 5.5 nM.

With `COc1ccc(/C=C/c2cc(NCCN(C)C)c3cc(F)ccc3n2)cc1` [Compound 19], the EC50 under setting [1] turned out to be 37.8 ± 8.7 nM.

As to `COc1ccc(/C=C/c2cc(NCCN(C)C)c3cc(F)ccc3n2)cc1OC` [Compound 20], under setting [1], the EC50 is 41.1 ± 0.6 nM.

`COc1cc(/C=C/c2cc(NCCN(C)C)c3cc(F)ccc3n2)cc(OC)c1OC` [Compound 21]: the EC50 (Dd2 strain, read-out: EC50) was found to be 38.6 ± 1.8 nM.

`CN(C)CCNc1cc(/C=C/c2ccccc2)nc2ccc(Cl)cc12` [Compound 22]: the EC50 under setting [1] amounted to 22.4 ± 2 nM.

For the compound `CN(C)CCNc1cc(/C=C/c2ccc([N+](=O)[O-])cc2)nc2ccc(Cl)cc12` [Compound 23], the EC50 under setting [1] was 28.7 ± 3.8 nM.

With `COc1ccc(/C=C/c2cc(NCCN(C)C)c3cc(Cl)ccc3n2)cc1` [Compound 25], the EC50 under setting [1] came out at 34.8 ± 7.9 nM.

As to `COc1ccc(/C=C/c2cc(NCCN(C)C)c3cc(Cl)ccc3n2)cc1OC` [Compound 26], the EC50 under setting [1] came to 38.9 ± 7.8 nM.

On to `COc1cc(/C=C/c2cc(NCCN(C)C)c3cc(Cl)ccc3n2)cc(OC)c1OC` [Compound 27], for which, under setting [1], the EC50 is 44.4 ± 3.6 nM.

Consider `CN(C)CCNc1cc(/C=C/c2ccc(N(C)C)cc2)nc2ccc(Cl)cc12` [Compound 28], for which the EC50 under setting [1] was 88.3 ± 2.2 nM.

With `CN(C)CCNc1cc(/C=C/c2ccccc2)nc2ccccc12` [Compound 32], under “Dd2 strain, read-out: EC50”, the EC50 came to 80.7 ± 22.4 nM.

As for `CN(C)CCNc1cc(/C=C/c2ccc([N+](=O)[O-])cc2)nc2ccccc12` [Compound 33], the EC50 under setting [1] was 47.9 ± 9.5 nM.

As for `CN(C)CCNc1cc(/C=C/c2ccc(F)cc2)nc2ccccc12` [Compound 34], under setting [1], the EC50 came out at 25.5 ± 7.1 nM.

Take `CN(C)CCCCNc1cc(/C=C/c2ccccc2)nc2ccc(Cl)cc12` [Compound 35]: the EC50 under setting [1] was 68 ± 9 nM.

As for `CN(C)CCCCNc1cc(/C=C/c2ccc([N+](=O)[O-])cc2)nc2ccc(Cl)cc12` [Compound 36], the EC50 under setting [1] stood at 52.5 ± 2 nM.

For `CN(C)CCCCNc1cc(/C=C/c2ccc(F)cc2)nc2ccc(Cl)cc12` [Compound 37], under setting [1], the EC50 stood at 51.2 ± 1.6 nM.

`COc1ccc2nc(/C=C/c3ccco3)cc(NCCN(C)C)c2c1` [Compound 39]: the EC50 (Dd2 strain, read-out: EC50) was 88.7 ± 2.3 nM.

For the compound `COc1ccc2nc(/C=C/c3cccs3)cc(NCCN(C)C)c2c1` [Compound 40], the EC50 under setting [1] amounted to 80 ± 7 nM.
